Four compounds from patent US20240246905A1 (University of Leicester, priority 2021, published 2024) can be followed below.

For one data set, the system named is MRSA 252. The data set is described as follows: Resistance testing by serial passaging. The note with it: 18 serial passage cycles. It is filed as cell-based, S. aureus. On the procedure:
Next a serial passage study was undertaken in order to elucidate the speed at which target bacteria might either evolve resistance or select for persister cells within that population following exposure to compound 36.
For resistance development by serial passaging, 5 μL of overnight cultured MRSA 252 cells were added to individual wells in a 96-well plate containing 195 μL of TSB supplemented with a range of antibiotic concentrations and incubated at 37° C. for 18 hours. Ofloxacin served as a control. Wells where bacterial growth was visible after 18 hours were plated on TSA plates and incubated at 37° C. for a further 18 hours. Single colonies obtained from the overnight cultured bacteria were then inoculated into fresh TSB medium, incubated at 37° C. for 18 hours before being used in the next cycle of the resistance testing. This process continued for 18 cycles.

The next data set concerns MRSA 252 biofilms. Description: Biofilm prevention, crystal violet. The note with it: 50 μg/mL. The class given is cell-based, S. aureus. As to the method: The potential of the lead compounds to both inhibit S. aureus biofilm growth and to disrupt more established biofilms was next investigated. Since previous studies had determined each compounds MIC against planktonic MRSA bacteria, it was hypothesized that a compound concentration of 50 μg/mL (at or above the MIC of all lead compounds except 2) was a reasonable concentration to begin the study.
Prevention: 100 μL of a mixture of TSB supplemented with 0.5% glucose and antibiotic (1:1) was added to individual wells in 96-well plate. The wells were then inoculated with […] an overnight culture of bacteria and incubated at 37° C. for 24 hours. Following the pre-determined length of time, the medium in each well was discarded, washed twice with PBS before 150 μL of a 1% crystal violet solution was added and the plate was left to incubate at room temperature for a further 30 minutes. Each well was then washed a further 4× with PBS before 200 μL 7% acetic acid was added. The absorbance of each well was then measured at OD595.

In data set [1] the test system is late-exponential phase MRSA 252. Description: Time-kill assay. The class given is cell-based, S. aureus. As to the method:
Investigations into the precise mode of action of these compounds was next studies, with time-kill assays, resistance studies, live-dead stain and morphological analysis of bacteria exposed to the compounds providing an insight into the specific mode of action. Time-kill assays were used to evaluate whether the compounds were bacteriostatic or bactericidal.
The mode of inhibitory action of our novel class of compounds was determined by measuring the decrease in CFU over time. […] The pellets were re-suspended in TSB with the antibiotic added at 2× and 4×MIC and incubated at 37° C. Bacterial suspensions mixed with 1 M saline served as a control. […]

In a further data set the test system is S. aureus SH1000 cells. The data set is described as follows: DiSC3(5) membrane potential assay. It is filed as cell-based. The following applies: 16 μg/mL, 180 minutes. On the procedure: We next looked to further confirm the cell membrane as being the target site of action for our compounds, by undertaking a membrane depolarization assay using the voltage sensitive dye, 3,3′-dipropylthiacarbocyanine iodide (DiSC3(5)).
[…] Cultures of SH1000 were grown to OD600 of 0.2 before being incubated further with 0.1 M KCl and 2 μM DiSC3(5) for 30 minutes at 37° C. […] Subsequently, the cells were centrifuged and 1 mL of supernatant mixed with 1 mL DMSO; the centrifuged pellet was lysed in DMSO for 10 minutes and added to equal volumes of HEPES and glucose buffer. Extracellular and intracellular fluorescence was measured on a LS 45 luminescence spectrometer (PerkinElmer) at an excitation and emission of 622 nm and 670 nm respectively. Consequently, the membrane potential was calculated using the Nernst equation and expressed as a percentage of the initial value.

Data set [2] can be described thus: Acid stability in 1M acetic acid (NMR, IR). The class given is physicochemical. The following applies: 6 hours in 1M acetic acid (pH 2.37). As to the method: Also, well documented in the literature, is the hydrolysis of isocyanide compounds to their corresponding formamide in acidic conditions. Due to the acidic conditions present in the stomach it was important to identify whether the lead compounds might hydrolyse to their corresponding formamide compounds in-vivo. To determine this, Compound 41 was stirred for 6 hours in 1M acetic acid (pH 2.37), mimicking the length of time oral drugs are present in the stomach. The NMR data obtained after 6 hours was identical to that of compound 41 before the assay (FIG. 18). In addition to the NMR, IR analysis further confirmed the presence of the isocyanide group post treatment with acid, as shown by the sharp signal at approximately 2100 cm^−1.

A further data set deals with S. aureus AS 68 biofilm. Description: Biofilm eradication, 24 hour old biofilms, crystal violet. The class given is cell-based. As to the method: The attenuation of biomass by the lead compounds in the 24 hour old biofilms was measured by crystal violet stain assay. […] Further assays were performed to study the biofilm attenuation properties of compound 41. At concentrations, as low as 2 μg/ml (the lowest concentration tested), there was still an 86% reduction of the biofilm depth (FIG. 4).
Eradication: To develop biofilms, 2.5 μL of an overnight culture of bacteria was added to individual wells in a 96-well plate each containing 100 μL TSB supplemented with 0.5% glucose and incubated at 37° C. for 24 hours. Following this, the medium in each well was first discarded and washed once with PBS before set concentrations of antibiotic was added and incubated at 37° C. for a further 18 hours. The medium in each well was then discarded, washed 4× with PBS before 150 μL 1% crystal violet was added and the plate was left to incubate at room temperature for a further 30 minutes. Following incubation, the medium in each well was first discarded before being washed 4× with PBS. 200 μL 7% acetic acid was then added and the wells were measured at OD595.

In a further data set the test system is Galleria mellonella. Description: Systemic toxicity, Galleria mellonella survival. The note with it: n = 10, injection of 500 μg/mL. On the procedure:
Galleria mellonella wax worms purchased from www.livefoods.co.uk were inoculated with 10 μL of a series of dilutions of the antibiotics synthesised in-house. The antibiotic concentrations chosen for this study were the following: 1000 μg/mL, 500 μg/mL, 250 μg/mL, 125 μg/mL and 31.25 μg/mL. Each dilution was injected into 10 individual wax worms through their last pro-leg. The injected wax worms were stored at 25° C. for 5 days. The cytotoxicity was determined as the percentage survival rate of Galleria mellonella Wax worms after 5 days inoculation.

For `[C-]#[N+]/C=C/c1ccc(O)cc1/C=C/c1ccccc1` [Compound 36, 4-((E Z)-2-Isocyanovinyl)-3-((E)-styryl)phenol], in the data set on MRSA 252, the “change of MIC after serial passage (in words)” value is “no increase in the MIC”.

Turning to `[C-]#[N+]C=Cc1ccc(O)cc1` [Compound 2, 4-(2-Isocyanovinyl)phenol], in the data set with MRSA 252 biofilms, the “prevention of MRSA 252 biofilm growth” value is “entirely prevented biofilm formation”.

Turning to `[C-]#[N+]/C=C/c1ccc(NC(C)=O)cc1/C=C/c1ccccc1` [Compound 41, N-(4-((E)-2-Isocyanovinyl)-3-((E)-styryl)phenyl)acetamide], in data set [1] (20 hours exposure, 2×MIC, MRSA 252 in TSB), the “reduction in bacterial density” value was found to be 4 log. For the same compound, the bacteriostatic or bactericidal entry in data set [1] (late-exponential phase MRSA 252) is on record as “bactericidal activity”. In addition, in the data set with S. aureus SH1000 cells, the “reduction in the proton motive force” value is 70%. The “NMR data after acid exposure” value in data set [2] is “identical”. In the data set with S. aureus AS 68 biofilm (S. aureus AS 68, 2 μg/ml (the lowest concentration tested)), the “reduction of the biofilm depth” value came to 86%. Besides, the “attenuation of biomass in 24 hour old biofilms” value in the data set on S. aureus AS 68 biofilm (S. aureus AS 68, 50 μg/mL, crystal violet) is recorded as “significant attenuation in biomass”.

Regarding “(2-Isocyanovinyl)-4-acetaamido benzene [Compound 22]”, in the data set with Galleria mellonella, the “% survival after 5 days” value is recorded as 70%.
